US9826761B2, “Compositions and methods for mitigating dietary sulfur in animals” (SarTec Corporation, priority 2008, dated 2017)

Assays:
[1] = Titration of approx. 200 mM sulfide in fresh rumen fluid with 1 M metal chloride, silver/sulfide electrode; design: species or system Holstein cows; conditions: for mVolts (Negative Value): ~200 mM sulfide, fresh rumen fluid
Protocol: Fresh undiluted rumen fluid was obtained from rumen fistulated Holstein cows. 1.5 ml of a saturated solution of Na2S in water (approximately 2.7 M) was added to 18.5 ml of the rumen fluid. Sodium sulfide solutions were quantified by titration using a silver/sulfide electrode (Orion, Ion Plus Silver/Sulfide 9616BNWP) and a commercial lead standard (0.1 M Pb^2+, Orion 948206). The final concentration for sulfide ion in the rumen fluid was approximately 200 mM. This solution was then titrated with a 1 M solution of MnCl2 in water. The progress of the reaction was followed using the silver/sulfide electrode.
Fresh undiluted rumen fluid was obtained from rumen fistulated Holstein cows. 1.5 ml of saturated solution of Na2S in water (approximately 2.7 M) was added to 18.5 ml of the rumen fluid. The final concentration of sulfide ion in the rumen fluid was approximately 200 mM. This solution was then titrated with a 1 M solution of FeCl2 in water. The progress of the reaction was followed using the same silver/sulfide electrode set-up described above (Orion, Ion Plus Silver/Sulfide 9616BNWP).
Data taken from Examples 1 and 2 above were plotted together in order to gauge the relative efficacy of MnCl2 versus FeCl2 in removing sulfide ion from rumen fluid.

[2] = Titration of approx. 200 mM sulfide in 24 hour old rumen fluid with 1 M MnCl2, BaCl2 or CaCl2, silver/sulfide electrode; design: species or system Holstein cows
Protocol: 24 hour old undiluted rumen fluid from rumen fistulated Holstein cows was obtained. 4 ml of Na2S in water (approximately 1 M) was added to 16 ml of the rumen fluid. The final concentration of sulfide ion in the rumen fluid was approximately 200 mM. […] The progress of the reaction was followed using the same silver/sulfide electrode set-up described above (Orion, Ion Plus Silver/Sulfide 9616BNWP).

[3] = Effect of MnCl2 supplementation on cattle (feedlot trial); assay type: in vivo, Angus based feeder calves; conditions: feeder calves, approx. 0.55 g/head/day MnCl2 and 10.0 g/head/day FeCl2 in supplement with Yucca extract
Source text: In this example, forty-six Angus based feeder calves were blocked by sex (heifers and steers) and assigned within block to one of two treatments. One group (one pen of steers and one pen of heifers) was fed a commercially available feed additive including Yucca extract ([…] Corporation, Anoka, Minn.) mixed into the feedlot supplement. […] The supplement also contained minerals, vitamins, […]), and carrier feed products including corn, barley sprouts, and distillers grains. […] The results (DMI=dry matter intake, ADG=average daily gain) are shown below in Table 5.

[4] = Precipitating activity: rumen fluid containing manganese compound titrated with 1.0M Na2S, silver/sulfide electrode; design: species or system Holstein cows; conditions: for mVolts: 200 mM MnCl2 in rumen fluid
Protocol: Next, 0.28 g of MnO(II) was placed in a 100 ml beaker and 20 ml of rumen fluid was added. Then 0.17 g of MnO2(IV) was placed in 100 ml beaker and 20 ml of rumen fluid was added. Each of these compositions, in addition to a rumen fluid control, was then titrated with a 1.0M solution of Na2S. The progress of the reaction was followed using the same silver/sulfide electrode set-up described above (Orion, Ion Plus Silver/Sulfide 9616BNWP).

manganese (II) chloride [MnCl2]
concentration of sulfide ion within the rumen fluid ([1]; addition of 1 M titrant to ~200 mM sulfide in fresh rumen fluid): effective to reduce the concentration of sulfide ion | mVolts (Negative Value) ([1]; titrant volume 0.0 of 1M MnCl2): 952.6 mVolts | mVolts (Negative Value) ([1]; titrant volume 0.3 of 1M MnCl2): 950.5 mVolts | mVolts (Negative Value) ([1]; titrant volume 0.5 of 1M MnCl2): 947.7 mVolts | mVolts (Negative Value) ([1]; titrant volume 0.7 of 1M MnCl2): 947.8 mVolts | mVolts (Negative Value) ([1]; titrant volume 0.9 of 1M MnCl2): 940.4 mVolts | mVolts (Negative Value) ([1]; titrant volume 1.1 of 1M MnCl2): 929.7 mVolts | mVolts (Negative Value) ([1]; titrant volume 1.4 of 1M MnCl2): 918.4 mVolts | mVolts (Negative Value) ([1]; titrant volume 1.6 of 1M MnCl2): 899.9 mVolts | mVolts (Negative Value) ([1]; titrant volume 1.8 of 1M MnCl2): 882.2 mVolts | mVolts (Negative Value) ([1]; titrant volume 2.0 of 1M MnCl2): 861.5 mVolts | mVolts (Negative Value) ([1]; titrant volume 2.3 of 1M MnCl2): 850.2 mVolts | mVolts (Negative Value) ([1]; titrant volume 2.5 of 1M MnCl2): 830.5 mVolts | mVolts (Negative Value) ([1]; titrant volume 2.7 of 1M MnCl2): 808.9 mVolts | mVolts (Negative Value) ([1]; titrant volume 2.9 of 1M MnCl2): 777.1 mVolts | mVolts (Negative Value) ([1]; titrant volume 3.2 of 1M MnCl2): 735.7 mVolts | mVolts (Negative Value) ([1]; titrant volume 3.4 of 1M MnCl2): 702.0 mVolts | mVolts (Negative Value) ([1]; titrant volume 3.6 of 1M MnCl2): 686.7 mVolts | mVolts (Negative Value) ([1]; titrant volume 3.9 of 1M MnCl2): 678.2 mVolts | mVolts (Negative Value) ([1]; titrant volume 4.1 of 1M MnCl2): 672.4 mVolts | mVolts (Negative Value) ([1]; titrant volume 4.3 of 1M MnCl2): 667.8 mVolts | mVolts (Negative Value) ([1]; titrant volume 4.5 of 1M MnCl2): 664.4 mVolts | mVolts (Negative Value) ([1]; titrant volume 4.7 of 1M MnCl2): 661.8 mVolts | mVolts (Negative Value) ([1]; titrant volume 4.9 of 1M MnCl2): 658.9 mVolts | mVolts (Negative Value) ([1]; titrant volume 5.2 of 1M MnCl2): 656.6 mVolts | mVolts (Negative Value) ([1]; titrant volume 5.4 of 1M MnCl2): 654.6 mVolts | mVolts (Negative Value) ([1]; titrant volume 6.0 of 1M MnCl2): 649.8 mVolts | mVolts ([2]; Volume 0.0 of 1.0M MnCl2, ~200 mM sulfide): 934.0 mVolts | mVolts ([2]; Volume 0.2 of 1.0M MnCl2, ~200 mM sulfide): 931.7 mVolts | mVolts ([2]; Volume 0.4 of 1.0M MnCl2, ~200 mM sulfide): 931.6 mVolts | mVolts ([2]; Volume 0.6 of 1.0M MnCl2, ~200 mM sulfide): 930.7 mVolts | mVolts ([2]; Volume 0.8 of 1.0M MnCl2, ~200 mM sulfide): 929.4 mVolts | mVolts ([2]; Volume 1.0 of 1.0M MnCl2, ~200 mM sulfide): 926.6 mVolts | mVolts ([2]; Volume 1.2 of 1.0M MnCl2, ~200 mM sulfide): 921.4 mVolts | mVolts ([2]; Volume 1.4 of 1.0M MnCl2, ~200 mM sulfide): 906.6 mVolts | mVolts ([2]; Volume 1.7 of 1.0M MnCl2, ~200 mM sulfide): 903.0 mVolts | mVolts ([2]; Volume 1.8 of 1.0M MnCl2, ~200 mM sulfide): 863.5 mVolts | mVolts ([2]; Volume 1.9 of 1.0M MnCl2, ~200 mM sulfide): 855.2 mVolts | mVolts ([2]; Volume 2.0 of 1.0M MnCl2, ~200 mM sulfide): 848.1 mVolts | mVolts ([2]; Volume 2.1 of 1.0M MnCl2, ~200 mM sulfide): 841.7 mVolts | mVolts ([2]; Volume 2.2 of 1.0M MnCl2, ~200 mM sulfide): 834.5 mVolts | mVolts ([2]; Volume 2.3 of 1.0M MnCl2, ~200 mM sulfide): 829.2 mVolts | mVolts ([2]; Volume 2.4 of 1.0M MnCl2, ~200 mM sulfide): 823.9 mVolts | mVolts ([2]; Volume 2.5 of 1.0M MnCl2, ~200 mM sulfide): 817.9 mVolts | mVolts ([2]; Volume 2.7 of 1.0M MnCl2, ~200 mM sulfide): 811.4 mVolts | mVolts ([2]; Volume 2.8 of 1.0M MnCl2, ~200 mM sulfide): 804.0 mVolts | mVolts ([2]; Volume 2.9 of 1.0M MnCl2, ~200 mM sulfide): 794.9 mVolts | mVolts ([2]; Volume 3.0 of 1.0M MnCl2, ~200 mM sulfide): 783.1 mVolts | mVolts ([2]; Volume 3.1 of 1.0M MnCl2, ~200 mM sulfide): 767.9 mVolts | mVolts ([2]; Volume 3.3 of 1.0M MnCl2, ~200 mM sulfide): 746.6 mVolts | mVolts ([2]; Volume 3.4 of 1.0M MnCl2, ~200 mM sulfide): 733.1 mVolts | mVolts ([2]; Volume 3.5 of 1.0M MnCl2, ~200 mM sulfide): 718.3 mVolts | mVolts ([2]; Volume 3.6 of 1.0M MnCl2, ~200 mM sulfide): 704.2 mVolts | mVolts ([2]; Volume 3.7 of 1.0M MnCl2, ~200 mM sulfide): 694.2 mVolts | mVolts ([2]; Volume 3.8 of 1.0M MnCl2, ~200 mM sulfide): 687.0 mVolts | mVolts ([2]; Volume 3.9 of 1.0M MnCl2, ~200 mM sulfide): 679.7 mVolts | mVolts ([2]; Volume 4.0 of 1.0M MnCl2, ~200 mM sulfide): 674.1 mVolts | mVolts ([2]; Volume 4.2 of 1.0M MnCl2, ~200 mM sulfide): 670.1 mVolts | mVolts ([2]; Volume 4.4 of 1.0M MnCl2, ~200 mM sulfide): 665.4 mVolts | mVolts ([2]; Volume 4.6 of 1.0M MnCl2, ~200 mM sulfide): 661.8 mVolts | mVolts ([2]; Volume 5.0 of 1.0M MnCl2, ~200 mM sulfide): 657.1 mVolts | total sulfide ion concentrations in the rumen fluid versus BaCl2 and CaCl2 ([2]; ~200 mM sulfide): substantially lower total sulfide ion concentrations | ADG (average daily gain) [3]: 3.58 lb/head/day | DMI (dry matter intake) [3]: 23.18 lb/head/day | End wt. [3]: 1147.5 lb | Feed Efficiency (DM/gain) [3]: 6.48 | mVolts ([4]; Vol 1M Na2S 0.0): 533.2 mVolts | mVolts ([4]; Vol 1M Na2S 0.3): 617.3 mVolts | mVolts ([4]; Vol 1M Na2S 0.5): 631.2 mVolts | mVolts ([4]; Vol 1M Na2S 0.8): 640.0 mVolts | mVolts ([4]; Vol 1M Na2S 1.1): 641.8 mVolts | mVolts ([4]; Vol 1M Na2S 1.4): 647.5 mVolts | mVolts ([4]; Vol 1M Na2S 1.7): 649.0 mVolts | mVolts ([4]; Vol 1M Na2S 2.1): 652.1 mVolts | mVolts ([4]; Vol 1M Na2S 2.3): 653.0 mVolts | mVolts ([4]; Vol 1M Na2S 2.6): 652.6 mVolts | mVolts ([4]; Vol 1M Na2S 2.9): 658.0 mVolts | mVolts ([4]; Vol 1M Na2S 3.2): 667.2 mVolts | mVolts ([4]; Vol 1M Na2S 3.4): 678.8 mVolts | mVolts ([4]; Vol 1M Na2S 3.5): 691.3 mVolts | mVolts ([4]; Vol 1M Na2S 3.6): 710.6 mVolts | mVolts ([4]; Vol 1M Na2S 3.8): 742.0 mVolts | mVolts ([4]; Vol 1M Na2S 3.9): 770.9 mVolts | mVolts ([4]; Vol 1M Na2S 4.0): 783.4 mVolts | mVolts ([4]; Vol 1M Na2S 4.1): 804.1 mVolts | mVolts ([4]; Vol 1M Na2S 4.2): 820.2 mVolts | mVolts ([4]; Vol 1M Na2S 4.3): 837.8 mVolts | mVolts ([4]; Vol 1M Na2S 4.4): 851.7 mVolts | mVolts ([4]; Vol 1M Na2S 4.5): 863.4 mVolts | mVolts ([4]; Vol 1M Na2S 4.7): 877.0 mVolts | mVolts ([4]; Vol 1M Na2S 4.8): 883.6 mVolts | mVolts ([4]; Vol 1M Na2S 4.9): 888.2 mVolts | mVolts ([4]; Vol 1M Na2S 5.0): 893.2 mVolts | precipitating sulfide ion versus MnO(II) and MnO2(IV) ([4]; rumen fluid titrated with 1.0M Na2S): much more effective in precipitating sulfide ion
